# According to patent US12522615B2, “Macrocyclic compounds and derivatives as EGFR inhibitors” (Boehringer Ingelheim International GmbH, priority 2019, dated 2026):
# Like-named read-outs stand apart in the source and are kept apart here.
# Experiments:
# [1] = tested on: Ba/F3 cells EGFR-indep. + IL-3; test: Ba/F3 proliferation assay (CellTiter-Glo viability); assay type: cell-based, murine; settings: Mus musculus, BaF3, 72 h
# Experimental: (§1) Plasmids containing EGFR mutants were obtained from GeneScript. To generate EGFR-dependent Ba/F3 models, Ba/F3 cells were transduced with retroviruses containing vectors that harbor EGFR isoforms. Platinum-E cells (Cell Biolabs) were used for retrovirus packaging. Retrovirus was added to Ba/F3 cells. To ensure infection, 4 μg/mL polybrene was added and cells were spinfected. Infection efficiency was confirmed by measuring GFP-positive cells using a cell analyzer. Cells with an infection efficiency of 10% to 20% were further cultivated and puromycin selection with 1 μg/mL was initiated. As a control, parental Ba/F3 cells were used to show selection status. Selection was considered successful when parental Ba/F3 cells cultures died. To evaluate the transforming potential of EGFR mutations, the growth medium was no longer supplemented with IL-3. Ba/F3 cells harboring the empty vector were used as a control. A switch from IL-3 to EGF was performed for Ba/F3 cells with the wildtype EGFR known for its dependency on EGF ligand. Approximately ten days before conducting the experiments, puromycin was left out. For proliferation assays (data in table 13), Ba/F3 cells were seeded into 96-well plates at 5×10^3 cells/100 μL in growth media. Compounds were added by using a HP D3000 Digital Dispenser. All treatments were performed in technical triplicates. Treated cells were incubated for 72 h at 37° C. with 5% CO2. CellTiter-Glo® Luminescent Cell Viability Assay (Promega) was performed and chemoluminescence was measured by using the multilabel Plate Reader VICTOR X4. The raw data were imported into and analyzed with the Boehringer Ingelheim proprietary software MegaLab (curve fitting based on the program PRISM, GraphPad Inc.).
# [2] = tested on: Ba/F3 cells driven by EGFR L858R; test: as above; assay type: cell-based, murine; settings: Mus musculus, BaF3, 72 h
# Experimental: as §1
# [3] = tested on: Ba/F3 cells driven by EGFR del19; test: as above; assay type: cell-based, murine; settings: Mus musculus, read-out: IC50 EGFR del19
# Experimental: as §1
# EGFR M+ NSCLC patients = EGFR M+ NSCLC patients treated in 1st line; cited from earlier work
# [4] = tested on: EGFR M+ T790M-positive patients; settings: 2nd line, previously treated with earlier generation EGFR TKI; cited from earlier work
# EGFR del19 T790M C797S = EGFR del19 T790M C797S (Homo sapiens, UniProt P00533, C797S/T790M, form not given); test: pEGFR assay: phosphorylation of EGFR at Tyr1068 in Ba/F3 cells (AlphaScreen Surefire); assay type: cell-based; settings: 4 h
# EGFR del19 T790M C797S, sequence (P00533 25-1210 T790M/C797S limits assumed, form open): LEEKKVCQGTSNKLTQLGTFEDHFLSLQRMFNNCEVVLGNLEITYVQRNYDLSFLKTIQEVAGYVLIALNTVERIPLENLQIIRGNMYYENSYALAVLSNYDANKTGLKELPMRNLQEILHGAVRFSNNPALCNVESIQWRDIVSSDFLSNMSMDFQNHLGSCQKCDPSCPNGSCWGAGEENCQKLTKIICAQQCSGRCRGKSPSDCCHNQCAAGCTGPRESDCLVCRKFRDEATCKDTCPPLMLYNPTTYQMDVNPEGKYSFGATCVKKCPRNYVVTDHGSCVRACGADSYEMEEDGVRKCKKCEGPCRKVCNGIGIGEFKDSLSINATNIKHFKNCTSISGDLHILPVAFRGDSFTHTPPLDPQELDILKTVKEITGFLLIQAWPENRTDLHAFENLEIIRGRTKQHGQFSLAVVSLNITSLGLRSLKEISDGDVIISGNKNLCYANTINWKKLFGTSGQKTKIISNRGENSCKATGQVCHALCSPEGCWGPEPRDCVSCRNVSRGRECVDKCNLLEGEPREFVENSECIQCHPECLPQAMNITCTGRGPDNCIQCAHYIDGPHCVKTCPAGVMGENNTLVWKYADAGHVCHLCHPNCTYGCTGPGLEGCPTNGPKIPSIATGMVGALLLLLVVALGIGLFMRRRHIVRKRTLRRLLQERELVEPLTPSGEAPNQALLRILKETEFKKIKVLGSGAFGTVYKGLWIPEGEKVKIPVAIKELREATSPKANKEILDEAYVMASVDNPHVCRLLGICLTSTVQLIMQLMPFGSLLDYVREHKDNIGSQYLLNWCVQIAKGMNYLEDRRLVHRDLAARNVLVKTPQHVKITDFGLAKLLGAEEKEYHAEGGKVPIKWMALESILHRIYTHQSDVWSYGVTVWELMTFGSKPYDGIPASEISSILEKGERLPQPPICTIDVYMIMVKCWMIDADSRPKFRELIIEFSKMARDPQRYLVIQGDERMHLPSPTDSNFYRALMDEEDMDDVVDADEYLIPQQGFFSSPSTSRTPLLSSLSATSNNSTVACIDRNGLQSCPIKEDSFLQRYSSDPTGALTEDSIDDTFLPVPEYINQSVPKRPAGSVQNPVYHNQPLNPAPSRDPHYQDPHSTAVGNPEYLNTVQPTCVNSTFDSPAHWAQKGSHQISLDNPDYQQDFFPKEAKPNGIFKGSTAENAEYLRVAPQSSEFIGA
# Experimental: Transduced cells were selected using puromycin. Following selection, IL-3 was withdrawn and IL-3 independent cells cultured. p-EGFR Tyr1068 was determined using the AlphaScreen Surefire pEGF Receptor (Tyr1068) Assay (PerkinElmer, TGRERS). […] Subsequently, 60.000 cells/well in 60 μL were added. Cells were incubated with compound for 4 h at 37° C. […] The mixture was incubated at room temperature with shaking (700 rpm) for 20 min. After centrifugation, 4 μL of the lysate were transferred to Proxiplates. […] Plates were shaken for 1 min (1400 rpm) and incubated for 2 h at room temperature in the dark.
# [5] = target: EGFR (d746-750 T790M C797S) (Homo sapiens (Human), UniProt P00533, C797S/DEL746-750/T790M); test: Biochemical EGFR inhibition assay (poly-GT substrate phosphorylation, TR-FRET LANCE Ultra); settings: 5 μM ATP; read-out: Del_TM_CS (5 μM ATP)
# EGFR (d746-750 T790M C797S), sequence (P00533 other isoform, or with tags, fused parts or gaps T790M/C797S/del 1-694/del 746-750 limits assumed): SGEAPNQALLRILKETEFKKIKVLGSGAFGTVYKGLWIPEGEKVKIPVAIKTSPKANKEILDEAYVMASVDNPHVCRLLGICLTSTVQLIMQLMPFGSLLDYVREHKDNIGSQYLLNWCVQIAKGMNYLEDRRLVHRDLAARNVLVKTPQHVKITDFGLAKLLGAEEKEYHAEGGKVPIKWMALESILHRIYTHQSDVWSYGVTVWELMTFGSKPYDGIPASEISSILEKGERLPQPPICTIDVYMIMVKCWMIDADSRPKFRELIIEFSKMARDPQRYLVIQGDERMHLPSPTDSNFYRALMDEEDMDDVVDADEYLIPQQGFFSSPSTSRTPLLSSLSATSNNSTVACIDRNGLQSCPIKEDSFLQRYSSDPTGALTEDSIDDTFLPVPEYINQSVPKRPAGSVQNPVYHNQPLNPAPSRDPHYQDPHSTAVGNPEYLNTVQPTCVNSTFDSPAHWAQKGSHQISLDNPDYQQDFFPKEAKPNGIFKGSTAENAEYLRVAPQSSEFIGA
# Experimental: (§2) Initially, the inhibitory effect of compounds according to the invention is measured in biochemical assays which measure the phosphorylation activity of EGFR enzyme forms on poly-GT substrate in the presence of different concentrations of ATP (5 μM and 100 μM final assay concentration).
# (§3) The following enzyme forms of EGFR are representative examples that can be used in these assays at the given concentrations:
# Test compounds dissolved in DMSO are dispensed onto assay plates (Proxiplate 384 PLUS, white, PerkinElmer; 6008289) using an Access Labcyte Workstation with the Labcyte Echo 55x. […]
# 5 μL of EGFR enzyme form in assay buffer (50 mM HEPES pH 7.3, 10 mM MgCl2, 1 mM EGTA, 0.01% Tween 20, 2 mM DTT) are dispensed into columns 1-23, than 5 μL of ATP and ULight-poly-GT substrate (PerkinElmer; TRF0100-M) mix in assay buffer is added to all wells (final assay concentration of the ULight-poly-GT substrate 200 nM). […] After additional 60 minutes incubation at room temperature the signal is measured in a PerkinElmer Envision HTS Multilabel Reader using the TR-FRET LANCE Ultra specs of PerkinElmer (used wavelengths: excitation 320 nm, emission 1 665 nm, emission 2 615 nm). […] Negative and positive control values are used for normalization and IC50 values are calculated and analysed using a 4 parametric logistic model. […]
# [6] = target: EGFR (mutated) 695-1022, T790M, C797S, L858R (Homo sapiens (Human), UniProt P00533, C797S/L858R/T790M); test: as above
# EGFR (mutated) 695-1022, T790M, C797S, L858R, sequence (P00533 695-1022 T790M/C797S/L858R): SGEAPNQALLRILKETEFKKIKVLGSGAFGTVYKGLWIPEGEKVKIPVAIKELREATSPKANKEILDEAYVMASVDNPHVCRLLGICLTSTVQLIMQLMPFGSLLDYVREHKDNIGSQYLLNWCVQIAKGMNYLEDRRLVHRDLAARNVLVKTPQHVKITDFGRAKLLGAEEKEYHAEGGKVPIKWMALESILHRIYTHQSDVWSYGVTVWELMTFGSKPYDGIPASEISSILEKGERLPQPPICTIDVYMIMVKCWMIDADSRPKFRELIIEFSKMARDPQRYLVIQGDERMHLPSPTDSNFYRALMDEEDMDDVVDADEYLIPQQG
# Experimental: as §2, §3
# (§4) For the chosen highest assay concentration of 100 μM, 150 nL of compound solution is transferred from a 10 mM DMSO compound stock solution. A series of eleven fivefold dilutions per compound is transferred to the assay plate, compound dilutions are tested in duplicates. DMSO is added as backfill to a total volume of 150 nL. The assay runs on a fully automated robotic system.
# (§5) 5 μL of EGFR enzyme form in assay buffer (50 mM HEPES pH 7.3, 10 mM MgCl2, 1 mM EGTA, 0.01% Tween 20, 2 mM DTT) are dispensed into columns 1-23, than 5 μL of ATP and ULight-poly-GT substrate (PerkinElmer; TRF0100-M) mix in assay buffer is added to all wells (final assay concentration of the ULight-poly-GT substrate 200 nM). Each of the different EGFR enzyme form assays is available at low ATP (final assay concentration 5 μM) and high ATP levels (final assay concentration 100 μM). After 90 minutes incubation at room temperature 5 μL EDTA (final assay concentration 50 mM) and LANCE Eu-anti-P-Tyr (PT66) antibody (PerkinElmer, AD0069) (final assay concentration 6 nM) mix are added to stop the reaction and start the binding of the antibody. […] Each plate contains 16 wells of a negative control (diluted DMSO instead of test compound; w EGFR enzyme form; column 23) and 16 wells of a positive control (diluted DMSO instead of test compound; w/o EGFR enzyme form; column 24). Negative and positive control values are used for normalization and IC50 values are calculated and analysed using a 4 parametric logistic model.
# (§6) These biochemical EGFR enzyme form compound dose-response assays quantify the kinase activity via phosphorylation of a tagged poly-GT substrate. The results of the assay are provided as IC50 values.
# EGFR wt = EGFR wt (Homo sapiens (Human), UniProt P00533); test: as above
# EGFR wt, sequence (P00533 25-1210): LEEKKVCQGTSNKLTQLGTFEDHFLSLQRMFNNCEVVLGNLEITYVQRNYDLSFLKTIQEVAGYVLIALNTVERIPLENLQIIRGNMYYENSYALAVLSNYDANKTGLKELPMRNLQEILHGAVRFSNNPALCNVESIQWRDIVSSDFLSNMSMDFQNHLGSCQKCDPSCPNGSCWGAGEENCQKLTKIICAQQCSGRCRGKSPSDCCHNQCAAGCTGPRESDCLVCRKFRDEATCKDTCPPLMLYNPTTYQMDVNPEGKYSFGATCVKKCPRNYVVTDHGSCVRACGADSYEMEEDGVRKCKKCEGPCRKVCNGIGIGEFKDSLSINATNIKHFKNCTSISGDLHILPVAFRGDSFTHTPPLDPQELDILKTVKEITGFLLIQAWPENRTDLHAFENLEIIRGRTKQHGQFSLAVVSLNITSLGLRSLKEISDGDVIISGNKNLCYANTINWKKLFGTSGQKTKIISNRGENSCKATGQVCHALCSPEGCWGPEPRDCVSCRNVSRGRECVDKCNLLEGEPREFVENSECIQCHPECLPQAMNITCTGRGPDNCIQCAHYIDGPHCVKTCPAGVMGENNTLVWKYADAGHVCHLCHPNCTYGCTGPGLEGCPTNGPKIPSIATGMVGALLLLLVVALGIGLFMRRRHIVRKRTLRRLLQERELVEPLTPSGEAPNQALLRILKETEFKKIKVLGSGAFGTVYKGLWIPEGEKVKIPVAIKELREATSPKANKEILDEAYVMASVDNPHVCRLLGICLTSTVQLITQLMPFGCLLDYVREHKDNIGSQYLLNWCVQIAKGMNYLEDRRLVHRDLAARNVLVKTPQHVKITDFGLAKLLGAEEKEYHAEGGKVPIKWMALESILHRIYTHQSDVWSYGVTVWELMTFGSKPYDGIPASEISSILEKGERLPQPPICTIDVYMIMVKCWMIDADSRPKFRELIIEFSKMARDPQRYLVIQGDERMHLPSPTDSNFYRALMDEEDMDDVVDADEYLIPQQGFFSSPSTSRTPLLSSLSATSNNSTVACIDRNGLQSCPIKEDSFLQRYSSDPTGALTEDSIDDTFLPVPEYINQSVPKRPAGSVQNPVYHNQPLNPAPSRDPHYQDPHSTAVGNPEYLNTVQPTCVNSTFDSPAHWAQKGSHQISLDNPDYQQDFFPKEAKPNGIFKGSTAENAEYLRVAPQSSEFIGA
# Experimental: as §2, §3, §4, §5, §6
# [7] = tested on: Ba/F3 cells driven by EGFR L858R C797S; test: Ba/F3 proliferation assay (CellTiter-Glo viability); assay type: cell-based, murine; settings: Mus musculus, BaF3, 72 h
# Experimental: as §1
# [8] = tested on: Ba/F3 cells driven by EGFR L858R T790M C797S; test: as above; assay type: cell-based, murine; settings: Mus musculus, BaF3, 72 h
# Experimental: as §1
# [9] = tested on: Ba/F3 cells driven by EGFR L858R T790M; test: as above; assay type: cell-based, murine; settings: Mus musculus, BaF3, 72 h
# Experimental: as §1
# [10] = tested on: Ba/F3 cells driven by EGFR del19 C797S; test: as above; assay type: cell-based, murine; settings: Mus musculus, BaF3, 72 h
# Experimental: as §1
# [11] = tested on: Ba/F3 cells driven by EGFR del19 T790M C797S; test: as above; assay type: cell-based, murine; settings: Mus musculus, BaF3, 72 h
# Experimental: as §1
# [12] = tested on: Ba/F3 cells driven by EGFR del19 T790M; test: as above; assay type: cell-based, murine; settings: Mus musculus, BaF3, 72 h
# Experimental: as §1
# [13] = tested on: Ba/F3 cells driven by EGFR wt; test: as above; assay type: cell-based, murine; settings: Mus musculus, BaF3, 72 h
# Experimental: as §1
# [14] = 5 μM ATP, read-out: LR_TM_CS (5 μM ATP)
# [15] = 100 μM ATP, read-out: LR_TM_CS (100 μM ATP)
# [16] = 5 μM ATP, read-out: wt (5 μM ATP)
# [17] = 100 μM ATP, read-out: wt (100 μM ATP)
smiles,measurement,setting,value
Cc1cc(C(=O)Nc2nc3cccc(Cl)c3n2[C@@H]2CCCCN(C(=O)/C=C/CN(C)C)C2)ccn1 [nazartinib],IC50,[1],> 5000 nM
same,IC50,[2],5.1 nM
same,IC50,"[3]; BaF3, viability, 72 h",1.1 nM
C=CC(=O)Nc1cc(Nc2nccc(-c3cn(C)c4ccccc34)n2)c(OC)cc1N(C)CCN(C)C [osimertinib],IC50,"[3]; BaF3, 72 h",0.5 nM
same,objective response rate,EGFR M+ NSCLC patients,60-85%
same,patients that respond to treatment,[4],Approximately 70%
Cn1ncc2c1OCCCCCN1/C(=N/C(=O)c3cc(F)nc-2c3)Nc2ccccc21 [Compound I-037],IC50,EGFR del19 T790M C797S,1.2 nM
same,IC50,[5],0.2 nM
same,IC50,[6]; [14],0.3 nM
same,IC50,[6]; [15],3 nM
same,IC50,EGFR wt; [16],13 nM
same,IC50,EGFR wt; [17],> 100000 nM
Cc1cc2cc(n1)-c1cnn(C)c1OCCC[C@@H](C)CN1/C(=N/C2=O)Nc2ccc(CN3CCN(C)CC3)cc21 [Compound I-021],IC50,[1],1100 nM
same,IC50,[7],4 nM
same,IC50,[8],0.4 nM
same,IC50,[9],0.9 nM
same,IC50,[2],7 nM
same,IC50,[10],0.5 nM
same,IC50,[11],0.2 nM
same,IC50,[12],0.3 nM
same,IC50,"[3]; BaF3, viability, 72 h",1 nM
same,IC50,[13],190 nM
COc1cc2ncnc(Nc3ccc(F)c(Cl)c3)c2cc1NC(=O)/C=C/CN1CCCCC1 [dacomitinib],IC50,[7],6.9 nM
same,IC50,[2],0.03 nM
same,IC50,[10],1.6 nM
same,IC50,"[3]; BaF3, viability, 72 h",0.01 nM
same,IC50,[13],0.64 nM
"CC(=O)N1CCCCC(n2/c(=N/C(=O)c3ccnc(C)c3)[nH]c3cccc(Cl)c32)C1 (centres unmarked) [Exp. WO 2014/121942, reference compound]",IC50,[1],3500 nM
same,IC50,[8],2200 nM
same,IC50,[11],770 nM
same,IC50,[13],2800 nM
C#Cc1cccc(Nc2ncnc3cc(OCCOC)c(OCCOC)cc23)c1 [erlotinib],objective response rate,EGFR M+ NSCLC patients,60-85%
C[C@@H]1CCCOc2ccccc2-c2cc(ccn2)C(=O)N=C2Nc3ccccc3N2C1 [Compound I-046],IC50,EGFR del19 T790M C797S,4.1 nM
same,IC50,[5],1.3 nM
same,IC50,[6]; [14],1.8 nM
same,IC50,[6]; [15],16 nM
same,IC50,EGFR wt; [16],18 nM
same,IC50,EGFR wt; [17],> 100000 nM
